Paper PMC7092826 (Biochemical Pharmacology, 2008)
Several values for one entry are separate records, joined by “and”; a condition that tells them apart may be missing. Equal entries are not always repeated.

Assays:
[1] = target: T1, SARS-CoV PLpro (Severe acute respiratory syndrome coronavirus, UniProt P0C6U8); experiment: biochemical; assay type: biochemical
[2] = target: cathepsin B (Homo sapiens, UniProt P07858); assay type: biochemical
[3] = target: T1, SARS-CoV PLpro; assay type: biochemical
[4] = target: cathepsin S (Homo sapiens, UniProt P25774); assay type: biochemical
[5] = target: T2, papain (Carica papaya, UniProt P00784); assay type: biochemical
T2 sequence (P00784 134-345): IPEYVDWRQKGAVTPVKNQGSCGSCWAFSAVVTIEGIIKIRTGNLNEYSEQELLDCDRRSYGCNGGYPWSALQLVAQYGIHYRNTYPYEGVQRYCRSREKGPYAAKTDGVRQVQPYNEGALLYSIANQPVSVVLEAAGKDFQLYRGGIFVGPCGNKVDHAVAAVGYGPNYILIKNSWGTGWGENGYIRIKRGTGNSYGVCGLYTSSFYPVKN

[6] = target: T3, cathepsin K (Homo sapiens, UniProt P43235); assay type: biochemical
T3 sequence (P43235 115-329): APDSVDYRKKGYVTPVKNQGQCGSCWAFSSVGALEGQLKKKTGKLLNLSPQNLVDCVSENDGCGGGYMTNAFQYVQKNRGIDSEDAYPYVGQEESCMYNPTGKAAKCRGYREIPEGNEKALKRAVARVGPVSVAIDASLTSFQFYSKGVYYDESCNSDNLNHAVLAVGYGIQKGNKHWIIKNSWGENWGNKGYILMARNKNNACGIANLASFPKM

[7] = target: SARS-CoV 3CLpro (Severe acute respiratory syndrome coronavirus, UniProt P0C6U8); experiment: biochemical; conditions: read-out: residual activity of 3CLpro
[8] = target: T1, SARS-CoV PLpro; experiment: biochemical; assay type: biochemical; conditions: for Ki: Kis
[9] = target: cathepsin L (Homo sapiens, UniProt P07711); assay type: biochemical
[10] = target: T1, SARS-CoV PLpro; assay type: biochemical; remark: listed apart in the source
[11] = target: T1, SARS-CoV PLpro; experiment: biochemical; assay type: biochemical; conditions: for remaining activity at 200 µM: read-out: residual activity of PLpro

Chain of cathepsin S (P25774 115-331): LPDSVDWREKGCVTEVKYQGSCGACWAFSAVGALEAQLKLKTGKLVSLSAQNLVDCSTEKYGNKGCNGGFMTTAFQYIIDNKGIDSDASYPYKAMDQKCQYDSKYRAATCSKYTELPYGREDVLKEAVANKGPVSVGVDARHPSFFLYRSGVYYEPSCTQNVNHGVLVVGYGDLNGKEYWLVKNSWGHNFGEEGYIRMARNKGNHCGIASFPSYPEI
Chain of cathepsin L (P07711 114-333, species assumed): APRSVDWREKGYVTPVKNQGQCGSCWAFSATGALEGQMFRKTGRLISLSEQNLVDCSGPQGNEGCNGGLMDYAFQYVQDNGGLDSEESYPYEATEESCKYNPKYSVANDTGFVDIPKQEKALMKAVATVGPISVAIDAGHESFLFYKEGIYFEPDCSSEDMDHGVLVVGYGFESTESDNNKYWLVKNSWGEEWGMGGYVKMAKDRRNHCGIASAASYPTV

| Structure (SMILES) | inhibitory activity against PLpro [1] | inhibition of cathepsin B [2] | inhibition of the deubiquitinating activity of PLpro [3] | IC50 [1] [µM] | inhibition of cathepsin S [4] | inhibition of papain [5] | inhibition of cathepsin K [6] | remaining activity at 200 µM [7] [%] | inhibition pattern [8] | kcat [8] [s⁻¹] | Ki [8] | inhibition of cathepsin L [9] | enzymatic activity after gel filtration of the inhibited enzyme (reversibility) [10] | binding mechanism [11] | kmax [11] | kmax of inactivation [11] [ms^−1] | remaining activity at 200 µM [11] [%] |
| --- | --- | --- | --- | --- | --- | --- | --- | --- | --- | --- | --- | --- | --- | --- | --- | --- | --- |
| CSc1ncnc2nc[nH]c12 [compound 4, 6-Methyl-mercaptopurine] | devoid of inhibitory activity |  |  |  |  |  |  |  |  |  |  |  |  |  |  |  |  |
| Nc1nc2nc[nH]c2c(=S)[nH]1 [compound 2, 6-Thioguanine] |  | not effective inhibitors | effectively inhibited | 5 ± 1.7 | not effective inhibitors | not effective inhibitors | not effective inhibitors | 25 | competitive | 0.14 ± 0.02 | 13 ± 2.8 µM | not effective inhibitors | restored | slow-binding inhibitors | 9.2 ± 0.9 10^−4 s^−1 | 0.92 | < 5 |
| O=c1[nH]cnc2nc[nH]c12 [compound 3, Hypoxanthine] | devoid of inhibitory activity |  |  |  |  |  |  |  |  |  |  |  |  |  |  |  |  |
| Sc1ncnc2nc[nH]c12 [compound 1, 6-Mercaptopurine] |  | not effective inhibitors | effectively inhibited | 21.6 ± 1.8 | not effective inhibitors | not effective inhibitors | not effective inhibitors |  | competitive | 0.13 ± 0.01 | 19 µM and 19.2 µM | not effective inhibitors | restored | slow-binding inhibitors | 1.2 ± 0.1 10^−4 s^−1 | 0.12 | < 5 |
| CCN1C(=O)C=CC1=O [compound 6, N-ethylmaleimide] |  |  |  | 4.4 ± 1 |  |  |  |  |  |  |  |  |  |  |  |  |  |
